Results reported in patent US12668584B2, “Heterocyclic compounds as kinase inhibitors for therapeutic uses” (National Health Research Institutes, priority 2019, dated 2026).

Legend:
[1] = system: M-NFS-60 cells; experiment: MTS cell viability assay, M-NFS-60; assay type: cell-based; conditions: 72 h, read-out: Cellular Proliferation Assay M-NFS-60 (nM) GI50
Experimental: (§1) Studies were conducted to evaluate […] anticancer activity of certain compounds described in EXAMPLE 1 using 3-(4,5-dimethylthiazol-2-yl)-5-(3-carboxymethoxyphenyl)-2-(4-sulfophenyl)-2H-tetrazolium) (MTS) cell viability assays. Results from these studies are shown in Table 2 below (see columns 3 and 4).
(§2) The cell lines M-NFS-60 (ATCC® CRL-1838™) and BaF3-CSF1R-1600 were obtained from American Type Culture Collection (ATCC, Manassas, VA, USA). The stable BaF3-CSF1R-1600 cell line expresses ETV6-CSF1R fusion protein consisting of N-terminal ETS-variant gene 6 protein (ETV6 residues M1-G337) and CSF1R tyrosine kinase (CSF1R residues L533-C972). The M-NSF-60 and BaF3-CSF1R-1600 cells were cultured in RPMI1640 medium supplemented with 10% fetal bovine serum, 0.05 mM 2-ME, 10 U/ml penicillin, and 10 µg/ml streptomycin at 37° C. and 5% CO2.
(§3) M-NFS-60 and BaF3-CSF1R-1600 cells were seeded in 96-well plates at a density of 10000 cells/100 μl and 8000 cells/100 μl per well, respectively, for 16 h and treated with vehicle or various concentrations of test compounds in medium for 72 h. Viable cells were quantified using the MTS method (Promega, Madison, WI, USA) according to manufacturer's recommended protocol. The results were determined by measuring absorbance at 490 nm using a plate reader (Victor 2). The GI50 value was defined as the amount of compound that caused 50% reduction in cell viability in comparison with DMSO-treated (vehicle) control and was calculated using Prism GraphPad Prism version 6 software (GraphPad).

[2] = system: BaF3-CSF1R-1600 cells (express ETV6-CSF1R fusion protein); experiment: MTS cell viability assay, BaF3-CSF1R-1600; assay type: cell-based; conditions: 72 h, read-out: Cellular Proliferation Assay BaF3-CSF1R GI50
Experimental: as §1, §2, §3

[3] = target: T1, CSF1R kinase (recombinant N-terminal GST-CSF1R, residues L534-C972) (Homo sapiens, UniProt P07333); experiment: CSF1R Kinase-Glo assay; assay type: biochemical; conditions: 40 μM ATP, 30° C. 180 min, read-out: Enzymatic Assay CSF1R enzyme IC50
T1 construct: Recombinant N-terminal GST-CSF1R (CSF1R residues L534-C972) containing the CSFIR kinase domain; made in house; host or cells: Sf9 insect cells
T1 sequence (P07333 534-972): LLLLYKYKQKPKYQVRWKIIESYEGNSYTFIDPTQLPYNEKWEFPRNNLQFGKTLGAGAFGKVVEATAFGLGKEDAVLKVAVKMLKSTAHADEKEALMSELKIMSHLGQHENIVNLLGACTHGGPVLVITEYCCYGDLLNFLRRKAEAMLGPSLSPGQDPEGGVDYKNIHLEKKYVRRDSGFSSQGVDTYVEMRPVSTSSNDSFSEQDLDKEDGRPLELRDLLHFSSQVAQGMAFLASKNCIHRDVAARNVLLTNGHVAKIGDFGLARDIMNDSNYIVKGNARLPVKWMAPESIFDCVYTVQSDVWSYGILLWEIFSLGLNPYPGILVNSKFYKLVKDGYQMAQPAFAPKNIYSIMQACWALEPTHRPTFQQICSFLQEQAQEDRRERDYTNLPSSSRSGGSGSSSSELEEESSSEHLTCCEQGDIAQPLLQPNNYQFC
Experimental: A study was conducted to test certain compounds described in EXAMPLE 1 in inhibiting CSF1R kinase activity.
Activity of CSF1R kinase was determined using a CSF1R Kinase-Glo assay. Recombinant N-terminal GST-CSF1R (CSF1R residues L534-C972) containing the CSFIR kinase domain was expressed in Sf9 insect cells and purified. The kinase assay was carried out in 96-well plates at 30° C. for 180 min with the tested compounds in a final volume of 50 μl including the following components: 25 mM Tris-HCl pH 7.4, 4 mM MnCl2, 10 mM MgCl2, 0.01% BSA, 0.5 mM NA3VO4, 0.02% Triton X-100, 40 μM ATP, 2 mM DTT and 20 μM poly(Glu,Tyr) 4:1 peptide, and 600 ng recombinant GST-CSF1R. Following incubation, 50 μl Kinase-Glo Plus Reagent (Promega, Madison, WI, USA) was added and the mixture was incubated at 25° C. for 20 min. A 70-μL aliquot of each reaction mixture was transferred to a black microtiter plate and luminescence was measured on Wallac Vector 1420 multilabel counter (PerkinElmer, Shelton, CT, USA). Percentage inhibition values were obtained by comparison of reaction rate with the rates in control wells (i.e., in the absence of test compound). IC50 values were calculated from a series of percentage inhibition values determined at a range of test compound concentrations using GraphPad Prism version 6 software (GraphPad, San Diego, CA, USA).

GI50 [2] [nM]	IC50 [3] [nM]	SMILES	GI50 [1] [nM]
< 20	< 20	CN(C)c1ccc2c(Oc3ccc(NC(=O)Nc4ccc(Cl)cc4)cc3)ncnc2c1 [Compound 19]	20 to 100
20 to 100	< 20	COC1CCN(c2ccc3c(Oc4ccc(NC(=O)Nc5ccc(Cl)cc5)cc4)ncnc3c2)CC1 [Compound 20]	20 to 100
20 to 100	20 to 100	CN(C)C1CCN(c2ccc3c(Oc4ccc(NC(=O)NCc5ccc(C(F)(F)F)nc5)cc4)ncnc3c2)CC1 [Compound 23]	20 to 100
20 to 100	20 to 100	COc1cc2nccc(Oc3ccc(NC(=O)NCc4ccc(C(F)(F)F)nc4)cc3)c2cc1OC [Compound 26]	100 to 1000
< 20	20 to 100	CN1CCN(c2ccc3c(Oc4ccc(NC(=O)NCc5ccc(C(F)(F)F)nc5)cc4)ncnc3c2)CC1 [Compound 28]	20 to 100
100 to 1000	100 to 1000	O=C(NCc1ccc(C(F)(F)F)nc1)Nc1ccc(Oc2ncnc3cc(Br)ccc23)cc1 [Compound 31, 1-(4-((7-Bromoquinazolin-4-yl)oxy)phenyl)-3-((6-(trifluoromethyl)pyridin-3-yl)methyl)urea]	> 1000
< 20	< 20	C[C@@H]1CN(c2ccc3c(Oc4ccc(NC(=O)NCc5ccc(C(F)(F)F)nc5)cc4)ncnc3c2)C[C@H](C)N1 [Compound 34, 1-(4-((7-(3,5-Dimethylpiperazin-1-yl)quinazolin-4-yl)oxy)phenyl)-3-((6-(trifluoromethyl)pyridin-3-yl)methyl)urea]	100 to 1000
20 to 100	< 20	CN(C)CCN(C)c1ccc2c(Oc3ccc(NC(=O)NCc4ccc(C(F)(F)F)nc4)cc3)ncnc2c1 [Compound 44]	100 to 1000
20 to 100	< 20	CN(CCCN1CCOCC1)c1ccc2c(Oc3ccc(NC(=O)NCc4ccc(C(F)(F)F)nc4)cc3)ncnc2c1 [Compound 45]	100 to 1000
100 to 1000	< 20	CN(C)c1ccc2c(Oc3ccc(NC(=O)NCc4ccc(S(N)(=O)=O)cc4)cc3)ncnc2c1 [Compound 49]	> 1000
20 to 100	< 20	CN(C)c1ccc2c(Oc3ccc(NC(=O)NCc4ccccc4)cc3)ncnc2c1 [Compound 51]	20 to 100
20 to 100	< 20	CN(C)c1ccc2c(Oc3ccc(NC(=O)NCCc4ccccc4)cc3)ncnc2c1 [Compound 58]	100 to 1000
100 to 1000	20 to 100	CN(C)c1ccc2c(Oc3ccc(NC(=O)NCc4ccco4)cc3)ncnc2c1 [Compound 63]	100 to 1000
20 to 100	20 to 100	C[C@@H]1CN(c2ccc3c(Oc4ccc(NC(=O)NCc5ccc(C(F)(F)F)nc5)cc4)ncnc3c2)C[C@H](C)N1C [Compound 97]	20 to 100
< 20	< 20	O=C(NCc1ccc(C(F)(F)F)nc1)Nc1ccc(Oc2ncnc3cc(N4CCN(C5COC5)CC4)ccc23)cc1 [Compound 98]	20 to 100
20 to 100	< 20	O=C(NCc1ccc(C(F)(F)F)nc1)Nc1ccc(Oc2ncnc3cc(N4CCOCC4)ccc23)cc1 [Compound 99]	20 to 100
20 to 100	< 20	CCN1CCN(c2ccc3c(Oc4ccc(NC(=O)NCc5ccc(C(F)(F)F)nc5)cc4)ncnc3c2)CC1 [Compound 100]	20 to 100

The next lines start with the molecule.

SMILES	GI50 [2] [nM]	IC50 [3] [nM]	GI50 [1] [nM]
CN(C)c1ccc2c(Oc3ccc(NC(=O)Nc4cccc(F)c4)cc3)ncnc2c1 [Compound 18]	20 to 100	< 20	100 to 1000
COc1ccc(NC(=O)Nc2ccc(Oc3ncnc4cc(N(C)C)ccc34)cc2)cc1 [Compound 21]	20 to 100	< 20	20 to 100
COC1CCN(c2ccc3c(Oc4ccc(NC(=O)NCc5ccc(C(F)(F)F)nc5)cc4)ncnc3c2)CC1 [Compound 24]	20 to 100	< 20	20 to 100
CN(C)c1ccc2c(Oc3ccc(NC(=O)NCc4ccc(C(F)(F)F)nc4)cc3Cl)ncnc2c1 [Compound 25]	100 to 1000	20 to 100	> 1000
O=C(NCc1ccc(C(F)(F)F)nc1)Nc1ccc(Oc2ncnc3cc(N4CCC(O)CC4)ccc23)cc1 [Compound 30, 1-(4-((7-(4-hydroxypiperidin-1-yl)quinazolin-4-yl)oxy)phenyl)-3-((6-(trifluoromethyl)pyridin-3-yl)methyl)urea]	20 to 100	< 20	20 to 100
O=C(NCc1ccc(C(F)(F)F)nc1)Nc1ccc(Oc2ncnc3cc(F)ccc23)cc1 [Compound 32]	100 to 1000	20 to 100	> 1000
CN(C)c1ccc2c(Oc3ccc(NC(=O)NCc4ccc(C(F)(F)F)nc4)c(Cl)c3)ncnc2c1 [Compound 33]	100 to 1000	20 to 100	100 to 1000
CN(CCO)c1ccc2c(Oc3ccc(NC(=O)NCc4ccc(C(F)(F)F)nc4)cc3)ncnc2c1 [Compound 40]	20 to 100	20 to 100	100 to 1000
COc1cc(Oc2ncnc3cc(N(C)C)ccc23)ccc1NC(=O)NCc1ccc(C(F)(F)F)nc1 [Compound 42]	20 to 100	< 20	100 to 1000
O=C(NCc1ccc(C(F)(F)F)nc1)Nc1ccc(Oc2ncnc3cc(N[C@@H]4CCCC[C@H]4O)ccc23)cc1 [Compound 43]	100 to 1000	20 to 100	100 to 1000
CN(C)c1ccc2c(Oc3ccc(NC(=O)NCc4ccc(C(F)(F)F)cc4)cc3)ncnc2c1 [Compound 56]	20 to 100	20 to 100	100 to 1000
CN(C)c1ccc2c(Oc3ccc(NC(=O)NCc4ccc(OC(F)(F)F)cc4)cc3)ncnc2c1 [Compound 57]	100 to 1000	< 20	100 to 1000
COc1ccc(CNC(=O)Nc2ccc(Oc3ncnc4cc(N(C)C)ccc34)cc2)cc1 [Compound 59]	20 to 100	< 20	20 to 100
Cc1ccc(CNC(=O)Nc2ccc(Oc3ncnc4cc(N(C)C)ccc34)cc2)cn1 [Compound 65, 1-(4-((7-(dimethylamino)quinazolin-4-yl)oxy)phenyl)-3-((6-methylpyridin-3-yl)methyl)urea]	20 to 100	< 20	20 to 100
CN(C)c1ccc2c(Oc3ccc4c(cnn4C(=O)NCc4ccc(C(F)(F)F)nc4)c3)ncnc2c1 [Compound 68]	20 to 100	20 to 100	100 to 1000
CN(C)c1ccc2c(Oc3ccc(NC(=O)NCc4nccs4)cc3)ncnc2c1 [Compound 101]	100 to 1000	20 to 100	100 to 1000
CN(C)c1ccc2c(Oc3ccc4nc(NCc5ccc(C(F)(F)F)nc5)oc4c3)ncnc2c1 [Compound 102]	100 to 1000	20 to 100	> 1000
